Square brackets hold non-standard residues; d marks the D form. Peptide text beside a SMILES is read from it. d2Nal = N[C@H](Cc1ccc2ccccc2c1)C(=O)O; Tle = CC(C)(C)[C@H](N)C(=O)O; Abu = CC[C@H](N)C(=O)O; Aib = CC(C)(N)C(=O)O; GABA = NCCCC(=O)O; βAla = NCCC(=O)O
Test system: C. albicans (CA-1, Strain SLU-1)
Assay: Radial diffusion assay
Assay type: cell-based, Candida albicans
Conditions: pmoles of peptide added to well to achieve a 30 mm^2 zone, PROBIT analysis; crude or purified (P′) peptide
Outline: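 Peptides, serially diluted 2-fold in D-PBS (top ~1 mg/mL), diffused 3 h at 37° C into pH 7.4 phosphate-buffered agarose seeded with 1×10^6 CFU/mL yeast, before overnight growth under a 6% Sabouraud overlayer. Net inhibition zones measured after Coomassie staining; PROBIT fit of log pmol vs area gave pmol for 30 mm^2.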

For `CC[C@H](C)[C@H](NC(=O)[C@H](CC(C)C)NC(=O)[C@@H](Cc1ccc2ccccc2c1)NC(=O)CNC(=O)[C@@H](NC(=O)[C@H](CCCCN)NC(=O)[C@H](CO)NC(=O)[C@@H](N)CCCCN)C(C)C)C(=O)N[C@@H](CC(C)C)C(=O)N[C@@H](CC(C)C)C(=O)N[C@@H](Cc1c[nH]c2ccccc12)C(=O)N[C@@H](Cc1c[nH]cn1)C(=O)N[C@@H](CCCCN)C(=O)N[C@@H](CCCCN)C(N)=O` [XMP.244] (H-KSKVG[d2Nal]LILLWHKK-NH2), the “C. albicans pmol/30 mm^2 zone” value was 859 pmol/30 mm^2 zone.
With `CC[C@H](C)[C@H](NC(=O)[C@H](CC(C)C)NC(=O)[C@@H](C)NC(=O)CNC(=O)[C@@H](NC(=O)[C@H](CCCCN)NC(=O)[C@H](CO)NC(=O)[C@@H](N)CCCCN)C(C)C)C(=O)N[C@@H](CCC(N)=O)C(=O)N[C@@H](CC(C)C)C(=O)N[C@@H](Cc1ccccc1)C(=O)N[C@@H](Cc1c[nH]cn1)C(=O)N[C@@H](CCCCN)C(=O)N[C@@H](CCCCN)C(N)=O` [XMP.252] (H-KSKVG[dA]LIQLFHKK-NH2) the “C. albicans pmol/30 mm^2 zone” value was 1,613 pmol/30 mm^2 zone.
For `CC[C@H](C)[C@H](NC(=O)[C@H](CC(C)C)NC(=O)[C@H](NC(=O)CNC(=O)[C@@H](NC(=O)[C@H](CCCCN)NC(=O)[C@H](CO)NC(=O)[C@@H](N)CCCCN)C(C)C)C(C)C)C(=O)N[C@@H](CCC(N)=O)C(=O)N[C@@H](CC(C)C)C(=O)N[C@@H](Cc1ccccc1)C(=O)N[C@@H](Cc1c[nH]cn1)C(=O)N[C@@H](CCCCN)C(=O)N[C@@H](CCCCN)C(N)=O` [XMP.253] (H-KSKVG[dV]LIQLFHKK-NH2), the “C. albicans pmol/30 mm^2 zone” value was 1,108 pmol/30 mm^2 zone.
With `CC[C@H](C)[C@H](NC(=O)[C@H](CC(C)C)NC(=O)CCNC(=O)CNC(=O)[C@@H](NC(=O)[C@H](CCCCN)NC(=O)[C@H](CO)NC(=O)[C@@H](N)CCCCN)C(C)C)C(=O)N[C@@H](CCC(N)=O)C(=O)N[C@@H](CC(C)C)C(=O)N[C@@H](Cc1ccccc1)C(=O)N[C@@H](Cc1c[nH]cn1)C(=O)N[C@@H](CCCCN)C(=O)N[C@@H](CCCCN)C(N)=O` [XMP.254] (H-KSKVG[βAla]LIQLFHKK-NH2) the “C. albicans pmol/30 mm^2 zone” value was 1,040 pmol/30 mm^2 zone.
In the case of `CC[C@H](NC(=O)CNC(=O)[C@@H](NC(=O)[C@H](CCCCN)NC(=O)[C@H](CO)NC(=O)[C@@H](N)CCCCN)C(C)C)C(=O)N[C@@H](CC(C)C)C(=O)N[C@H](C(=O)N[C@@H](CCC(N)=O)C(=O)N[C@@H](CC(C)C)C(=O)N[C@@H](Cc1ccccc1)C(=O)N[C@@H](Cc1c[nH]cn1)C(=O)N[C@@H](CCCCN)C(=O)N[C@@H](CCCCN)C(N)=O)[C@@H](C)CC` [XMP.255] (H-KSKVG[Abu]LIQLFHKK-NH2), the “C. albicans pmol/30 mm^2 zone” value is reported as 392 pmol/30 mm^2 zone.
With `CC[C@H](C)[C@H](NC(=O)[C@H](CC(C)C)NC(=O)CCCNC(=O)CNC(=O)[C@@H](NC(=O)[C@H](CCCCN)NC(=O)[C@H](CO)NC(=O)[C@@H](N)CCCCN)C(C)C)C(=O)N[C@@H](CCC(N)=O)C(=O)N[C@@H](CC(C)C)C(=O)N[C@@H](Cc1ccccc1)C(=O)N[C@@H](Cc1c[nH]cn1)C(=O)N[C@@H](CCCCN)C(=O)N[C@@H](CCCCN)C(N)=O` [XMP.256] (H-KSKVG[GABA]LIQLFHKK-NH2) the “C. albicans pmol/30 mm^2 zone” value was “b (No detectable activity up to 5 μg/well)”.
For `CC[C@H](C)[C@H](NC(=O)[C@H](CC(C)C)NC(=O)C(C)(C)NC(=O)CNC(=O)[C@@H](NC(=O)[C@H](CCCCN)NC(=O)[C@H](CO)NC(=O)[C@@H](N)CCCCN)C(C)C)C(=O)N[C@@H](CCC(N)=O)C(=O)N[C@@H](CC(C)C)C(=O)N[C@@H](Cc1ccccc1)C(=O)N[C@@H](Cc1c[nH]cn1)C(=O)N[C@@H](CCCCN)C(=O)N[C@@H](CCCCN)C(N)=O` [XMP.257] (H-KSKVG[Aib]LIQLFHKK-NH2), the “C. albicans pmol/30 mm^2 zone” value was 1,321 pmol/30 mm^2 zone.
For `CC[C@H](C)[C@H](NC(=O)[C@H](CC(C)C)NC(=O)[C@@H](NC(=O)CNC(=O)[C@@H](NC(=O)[C@H](CCCCN)NC(=O)[C@H](CO)NC(=O)[C@@H](N)CCCCN)C(C)C)C(C)(C)C)C(=O)N[C@@H](CCC(N)=O)C(=O)N[C@@H](CC(C)C)C(=O)N[C@@H](Cc1ccccc1)C(=O)N[C@@H](Cc1c[nH]cn1)C(=O)N[C@@H](CCCCN)C(=O)N[C@@H](CCCCN)C(N)=O` [XMP.258] (H-KSKVG[Tle]LIQLFHKK-NH2), the “C. albicans pmol/30 mm^2 zone” value was 880 pmol/30 mm^2 zone.

Source: patent publication US6664231B1, “Anti-fungal peptides” (priority 1993, dated 2003)
